How the values were obtained:
kidney [1] = test: clinical toxicity of gallium (kidney damage, long-term infusion); format: in vivo, patients; details: printed 22+ months
Excerpt: (§1) As with most anticancer drugs, gallium can potentially cause serious toxicity. The most serious side-effect being kidney damage. […] Furthermore, the anti bone-resorptive effects of gallium nitrate are achieved with less than 25-50% of the anticancer dose. Thus the method should retain safety and efficacy for prolonged periods of time.

[2] = tested on: bone cells (particularly osteoclasts); test: histology of cultured rat bones (toxicity to bone cells); format: cell-based
Excerpt: Samples of cultured rat bones used in experiments previously described herein were fixed, decalcified and stained with hematoxylin and eosin. Histologic sections were examined by light microscopy.

bone turnover = bone turnover in a patient with multiple myeloma and extensive bone destruction; format: in vivo; details: 200 mg/sq m/d×7 d infusion; for urine OH--Proline: previous 95.4; for urine Calcium: previous 618; for urine Phosphorus: previous 1630; for Urine Volume: previous 3640
Procedure: Summary: Patients with bone metastasis suffer progressive erosion of bone which causes pain, immobilization and fractures. Clinically, bone metastases are evaluated by sequential x-rays over a period of months to years. Other measures have recently been employed to measure bone turnover in patients with both cancer and non-cancerous bone resorption. In general, increased bone turnover is associated with increased loss of calcium into the urine and with increased excretion of hydroxyproline ([…]). Measurements of these parameters have been used to assess whether a new drug affects bone resorption (Siris, E. S. et al, New Engl J Med 302:310, 1980). We recently measured these parameters in a patient with multiple myeloma and extensive bone destruction who received gallium nitrate (200 mg/sq m/d×7 d by infusion).

kidney [3] = details: Leyland-Jones et al 1983; cited from earlier work
[4] = tested on: bone mineral (metaphysis); test: gallium incorporation into bone mineral, X-ray diffraction; format: in vivo, rats
Excerpt: Conceivably, gallium promotes or stabilizes crystal structure to produce matrix with more crystalline hydroxyapatite, or the drug promotes growth rather than dissolution of smaller crystallites.

[5] = resorption of devitalized bone particles from treated rats; details: particles from treated rats vs controls
Excerpt: Devitalized bone particles (i.e. bones containing only mineral and matrix without any cellular component) were studied.

calcium metabolism = test: metabolic study of patients receiving gallium nitrate (calcium homeostasis); format: in vivo
Excerpt: as §1
Experimental Results: Studies of calcium homeostasis require an assessment of multiple factors including dietary intake, excretion of calcium into urine and stool, and analysis of calcium mobilization from body stores (chiefly bone). Four patients who participated in a careful study of the effects of gallium nitrate upon calcium metabolism were thus assessed. Patients were hospitalized and received a diet of defined calcium, sodium, and fluid intake. Measurements of calcium excretion into urine and stool (along with multiple other laboratory tests) were made daily during a 6-day baseline period and during a subsequent treatment period using gallium nitrate. The drug was administered as a continuous infusion at a dose of 300 mg/sq m/day for durations ranging from 4-7 days.

[6] = oral absorption and excretion of gallium nitrate in the dog; format: in vivo; details: for plasma gallium concentration: single oral dose 1200 mg by gavage
Procedure: To evaluate the oral absorption and excretion of gallium nitrate, a concentrated solution of the drug was administered to a dog by oral gavage (total dose=1200 mg). Sequential plasma samples and the next 24 hour urinary volume were collected and assayed for gallium concentration by a flameless atomic absorption sprectrophotometer (Kelsen, D. P. et al, Cancer 46:2009, 1980).
The subsequent 24 hour urine volume was 183 ml and it contained a total amount of 1.13 mg of elemental gallium. Assuming similar patterns of excretion in humans and dogs, it is estimated that approximately 0.5-2% of an orally administered dose is absorbed and excreted into the urine.

fetal rat bones = test: 45-Ca++ release (bone resorption) from explants of fetal rat bones stimulated by PTH or lymphokine (OAF); format: cell-based; details: for 45-Ca++ release after stimulation by PTH or lymphokine (dose dependence): 48 hrs preincubation; for 45-Ca++ release expt'l / 45-Ca++ release control (E/C): control 1.00 ± .06; for 45-Ca++ release, gallium alone: without added PTH or lymphokine, vs control bones
Procedure: The effects of gallium nitrate on bone resorption in vitro were studied using explants of fetal rat bones (Bockman, R. S. and Repo, M. A., J Exp Med 154:529, 1981). Pregnant rats were injected with 0.2-0.4 mCi of 45-CaC12 on the 18th day of gestation. After 2 days of bone mineralization in utero, the radii and ulnae of fetal rats were explanted and placed on stainless steel rafts in BGJ media. Calcium releases from bone was stimulated by the addition of bovine PTH (2.0 microM, final concentration)or a lymphokine (OAF) preparation (10% of final volume). Gallium nitrate was added to the culture media at final concentration of 1, 5 and 10 mcg/ml simultaneously with--and 18 or 48 hours prior to--the addition of the bone-resorbing factors. After 48 hours of exposure to lymphokine or PTH, calcium release was determined by counting the supernatant media in a liquid scintillation counter. Data were expressed as the ratio of calcium release in counts per minute (cpm) of the experimental bone (treated or untreated with gallium nitrate and a resorbing factor) to cpm release by a paired control bone (treated or untreated with gallium nitrate) [cpm experimental/cpm control=E/C] Forty-nine bones were used to establish control values; 4-22 bones were used to obtain each of the experimental points. […]

[7] = 4 patients, continuous infusion 300 mg/sq m/day, 4-7 days

O=[N+]([O-])[O-].O=[N+]([O-])[O-].O=[N+]([O-])[O-].[Ga+3] [gallium nitrate]
duration of intermittent high-dose infusions without serious toxicity (kidney [1]): ≥ 22 months
lethal toxicity to bone cells ([2]; pharmacologic concentrations): do not cause lethal toxicity to bone cells
cellular components (histology) ([2]; pharmacologic concentrations, 72 hrs, compared with mithramycin-treated bones): normal cellular components
bone cell morphology ([2]; relative to untreated control bones, 72 hrs): no differences in bone cell morphology
urine OH--Proline (bone turnover; day 8): 19.0 mg/24 h
urine Calcium (bone turnover; day 8): 97 mg/24 h
urine Phosphorus (bone turnover; day 8): 419 mg/24 h
Urine Volume (bone turnover; day 8): 3225 ml/24 h
amount of calcium and hydroxyproline excretion (bone turnover; myeloma patient): marked decrease
bone pain (bone turnover; myeloma patient): substantial decrease in bone pain
effect upon the underlying disease (bone turnover; myeloma patient): no effect upon the underlying disease
requirement for narcotics (bone turnover; myeloma patient): reduced requirement for narcotics
urine OH--Proline (bone turnover; treatment day 1): 76.0 mg/24 h
urine Calcium (bone turnover; treatment day 1): 502 mg/24 h
urine Phosphorus (bone turnover; treatment day 1): 567 mg/24 h
Urine Volume (bone turnover; treatment day 1): 4365 ml/24 h
urine OH--Proline (bone turnover; treatment day 4): 23.9 mg/24 h
urine Calcium (bone turnover; treatment day 4): 239 mg/24 h
urine Phosphorus (bone turnover; treatment day 4): 607 mg/24 h
Urine Volume (bone turnover; treatment day 4): 3620 ml/24 h
nephrotoxicity (kidney [3]): generally reversible and that it is not cumulative
crystal size in metaphyseal-derived particles (X-ray diffraction) ([4]; gallium treated animals vs controls): marked increase in crystal size
gallium incorporation into bone ([4]; rats treated with gallium nitrate): incorporated into the bone metaphysis where more active bone mineral turnover was occurring and into the metabolically more active crystalline pool
susceptibility of devitalized bone particles to resorption [5]: significantly less susceptible to resorption than controls
calcium excretion relative to baseline (calcium metabolism; [7]): no significant increase in calcium excretion
total serum calcium concentration (calcium metabolism; [7]): reduced by the gallium infusion
dose for anti bone-resorptive effects as share of the anticancer dose (calcium metabolism; of the anticancer dose): 25-50%
urinary calcium excretion (calcium metabolism; patients receiving gallium nitrate): decreased urinary calcium excretion
calcium balance (calcium metabolism; patients while receiving the drug): remained in positive calcium balance
oral gallium nitrate dose estimated to achieve effective plasma levels ([6]; 70 kg human, extrapolated from dog data): 0.5-20 gms
toxic reaction ([6]; dog, oral 1200 mg): no toxic reaction
total amount of elemental gallium in urine ([6]; dog, oral 1200 mg, 24 hour urine): 1.13 mg
plasma gallium concentration ([6]; dog, 0 hrs): 0 µg/mL
plasma gallium concentration ([6]; dog, 0.25 hrs): 0.5 µg/mL
plasma gallium concentration ([6]; dog, 0.5 hrs): 1.25 µg/mL
plasma gallium concentration ([6]; dog, 1 hr): 1.37 µg/mL
plasma gallium concentration ([6]; dog, 2 hrs): 2.75 µg/mL
plasma gallium concentration ([6]; dog, 4 hrs): 2.0 µg/mL
plasma gallium concentration ([6]; dog, 24 hrs): 0.75 µg/mL
45-Ca++ release after stimulation by PTH or lymphokine (dose dependence) (fetal rat bones; 1 mcg/ml): no significant change
45-Ca++ release after stimulation by PTH or lymphokine (dose dependence) (fetal rat bones; 5 and 10 mcg/ml, P less than 0.025): significant and dose-related reductions
45-Ca++ release (time dependence) (fetal rat bones; 10 mcg/ml simultaneously with (time 0) or 18 hrs preceding PTH or lymphokine): the reduction was not statistically significant
45-Ca++ release (fetal rat bones; 48 h preincubation, 1, 5 and 10 mcg/ml): dose dependent decrease
45-Ca++ release expt'l / 45-Ca++ release control (E/C) (fetal rat bones; PTH-stimulated, gallium 1 mcg/ml, 48 h preincubation, 0 gallium: 1.21 ± 0.15): 1.24
45-Ca++ release expt'l / 45-Ca++ release control (E/C) (fetal rat bones; PTH-stimulated, gallium 5 mcg/ml, 48 h preincubation, 0 gallium: 1.21 ± 0.15): 1.08
45-Ca++ release expt'l / 45-Ca++ release control (E/C) (fetal rat bones; PTH-stimulated, gallium 10 mcg/ml, 48 h preincubation, 0 gallium: 1.21 ± 0.15): 0.99
45-Ca++ release expt'l / 45-Ca++ release control (E/C) (fetal rat bones; lymphokine-stimulated, gallium 1 mcg/ml, 48 h preincubation, 0 gallium: 1.59 ± .1): 1.54 ± .16
45-Ca++ release expt'l / 45-Ca++ release control (E/C) (fetal rat bones; lymphokine-stimulated, gallium 5 mcg/ml, 48 h preincubation, 0 gallium: 1.59 ± .1): 1.21 ± .04
45-Ca++ release expt'l / 45-Ca++ release control (E/C) (fetal rat bones; lymphokine-stimulated, gallium 10 mcg/ml, 48 h preincubation, 0 gallium: 1.59 ± .1): 1.23 ± .04
lymphokine-induced 45-Ca++ release (time dependence) (fetal rat bones; pre-incubation 48 hours preceding lymphokine, 10 mcg/ml): highly significant reduction
calcium release induced by PTH and by factor similar to OAF (fetal rat bones; summary, inhibition time- and dose-dependent): inhibits calcium release induced by both of these substances
45-Ca++ release, gallium alone (fetal rat bones): No increase in bone calcium release
45-Ca++ release, gallium alone (fetal rat bones; listed as gallium): did not have any effect on 45-Ca++ release

From US4529593A, “Use of gallium salts to treat disorders of calcium homeostasis” (Sloan-Kettering Institute for Cancer Research, priority 1984, dated 1985)
